The results in this text go back to PubChem BioAssay (NCI).

Test systems include KM20L2 colon; DLD-1 colon; T-47D breast; RXF-631 renal; MDA-MB-231 breast; SK-MEL-28 melanoma; OVCAR-5 ovarian; UACC-62 melanoma; BT-549 breast; 786-0 renal; MDA-N; XF 498 CNS.
Test in all cases: inhibition of tumour cell growth, NCI panel, 48 h

“And” between values parts separate entries of the source, which are not always exact repeats. Identical values can stand only once.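 Tested at 5 concentrations; 48 h exposure; 96-well plates; endpoints linearly interpolated, else capped at highest concentration. The concentration for 50% growth inhibition is given as GI50. TGI is the concentration that stops growth completely.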

For `C[C@H]1CCC/C=C/[C@@H]2C[C@H](O)C[C@H]2[C@H](O)/C=C/C(=O)O1`, the TGI with KM20L2 colon is 0.0368 µM and 0.0279 µM; in the assay on DLD-1 colon, 17.3 µM; in the assay with RXF-631 renal, 0.272 µM; in the assay with MDA-MB-231 breast, 0.0821 µM and 0.0399 µM. Further, the GI50 is 0.0381 µM in the assay with DLD-1 colon; 0.0809 µM and 0.619 µM with T-47D breast; < 0.01 µM and 0.0205 µM and 0.0547 µM with MDA-MB-231 breast; 0.0292 µM in the assay on SK-MEL-28 melanoma; 0.0857 µM in the assay on OVCAR-5 ovarian.

On to `O=C(CSSCC(=O)OCCS(=O)(=O)Nc1ccc(Br)cc1)OCCS(=O)(=O)Nc1ccc(Br)cc1`, for which the TGI in the assay on KM20L2 colon is above 100 µM; in the assay with DLD-1 colon, above 100 µM; with UACC-62 melanoma, 34.6 µM; in the assay on SK-MEL-28 melanoma, 96.4 µM; in the assay on OVCAR-5 ovarian, 84.7 µM.

Turning to `COc1cc(/C=C2\N=C(c3ccccc3)N(c3nc4ccc(Sc5ccccc5)cc4[nH]3)C2=O)cc(OC)c1OC`, the TGI with BT-549 breast is 55.1 µM; in the assay with T-47D breast, above 100 µM; in the assay on UACC-62 melanoma it was 38.7 µM; with 786-0 renal it was 42.4 µM; in the assay on MDA-MB-231 breast it was 50.3 µM; with SK-MEL-28 melanoma it was 67.4 µM. Further, the TGI is above 100 µM in the assay with OVCAR-5 ovarian and 24.7 µM in the assay on MDA-N.

For the molecule `O=C1CS(=O)(=O)C(c2cccc(Oc3ccccc3)c2)N1C1CC1` (configuration not stated), the TGI with BT-549 breast, in the assay with T-47D breast, in the assay on UACC-62 melanoma, with 786-0 renal, in the assay with MDA-MB-231 breast and in the assay on SK-MEL-28 melanoma was above 100 µM throughout. The TGI in the assay with OVCAR-5 ovarian is above 100 µM; with MDA-N, 80.1 µM.

Consider `N=C(N)c1ccc(N=Nc2c(O)ccc3cc4c(N=Nc5ccc(C(=N)N)cc5)c(O)ccc4cc23)cc1`, for which the TGI in the assay on BT-549 breast, with T-47D breast, in the assay on UACC-62 melanoma, with 786-0 renal, with MDA-MB-231 breast and with SK-MEL-28 melanoma was above 100 µM each time. In addition, the TGI in the assay with OVCAR-5 ovarian and in the assay on MDA-N was above 100 µM in each case.

For the molecule `COc1ccc(N=Nc2c(N)nn(C)c2N)cc1`, the TGI with KM20L2 colon, in the assay on DLD-1 colon, with UACC-62 melanoma, with RXF-631 renal, in the assay with 786-0 renal and with SK-MEL-28 melanoma was above 100 µM throughout. This molecule also yielded a TGI in the assay with OVCAR-5 ovarian above 100 µM.

In the case of `COc1cccc(NC(=O)CC(=O)NN2C(=O)/C(=C/c3ccc(N(CCC#N)CCC#N)cc3)N=C2c2cc([N+](=O)[O-])ccc2Cl)c1`, the TGI in the assay with KM20L2 colon, in the assay with DLD-1 colon, in the assay on UACC-62 melanoma, in the assay on RXF-631 renal, in the assay with XF 498 CNS and in the assay on SK-MEL-28 melanoma was above 100 µM in each case. In the assay on OVCAR-5 ovarian, the TGI was 72.3 µM.

For the molecule `COC(=O)c1ccc2c(c1)sc1nc(-c3ccc(OC)cc3)cn12`, the TGI with BT-549 breast, in the assay on T-47D breast, in the assay with UACC-62 melanoma, in the assay with 786-0 renal, in the assay with MDA-MB-231 breast and with SK-MEL-28 melanoma was above 100 µM each time. Further, the TGI with OVCAR-5 ovarian and in the assay with MDA-N was above 100 µM throughout.

As to `Cn1c(=O)ccc2c(=O)c3ccccc3oc21`, the TGI in the assay on T-47D breast, with UACC-62 melanoma, in the assay with MDA-MB-231 breast, in the assay with SK-MEL-28 melanoma, in the assay with OVCAR-5 ovarian and in the assay with MDA-N was above 100 µM each time.

For `CCOC(=O)/C(=C\NC(C)(C)CO)c1nc2ccccc2[nH]1`, the TGI in the assay on BT-549 breast, in the assay on UACC-62 melanoma, with 786-0 renal, in the assay with SK-MEL-28 melanoma, with OVCAR-5 ovarian and in the assay on MDA-N was above 100 µM in each case.

As to `C=C1c2nc3ccccc3n2C=C(c2ccc(Cl)cc2)N1c1ccc(OCCN2CCCCC2)cc1`, the GI50 in the assay on BT-549 breast is above 100 µM; in the assay on T-47D breast, above 100 µM; in the assay on UACC-62 melanoma it was above 100 µM; in the assay on MDA-MB-231 breast, above 100 µM; in the assay with SK-MEL-28 melanoma it was 32.8 µM; in the assay with OVCAR-5 ovarian, above 100 µM. The TGI in the assay with BT-549 breast is above 100 µM; with T-47D breast, above 100 µM; with UACC-62 melanoma, above 100 µM; in the assay with 786-0 renal it was above 45 µM; with MDA-MB-231 breast, above 100 µM; with SK-MEL-28 melanoma, above 100 µM. The TGI was above 100 µM with OVCAR-5 ovarian and 45 µM in the assay on MDA-N.

`Cn1cc(-c2nnc(-c3ccc(Cl)cc3)[nH]c2=O)c2ccccc21`: the TGI was above 100 µM in the assay with BT-549 breast; above 100 µM in the assay on T-47D breast; above 51.9 µM in the assay with UACC-62 melanoma; above 44.6 µM in the assay on 786-0 renal; above 84.9 µM in the assay with MDA-MB-231 breast; above 100 µM in the assay on SK-MEL-28 melanoma. Besides, the TGI in the assay with OVCAR-5 ovarian was above 100 µM; in the assay with MDA-N, 1.83 µM.

As to `Cc1cc2c(cc1Cl)SC(c1ccccc1O)NS2(=O)=O` (configuration not stated), the TGI was above 100 µM in the assay with BT-549 breast; 55.1 µM in the assay on T-47D breast; above 100 µM in the assay on UACC-62 melanoma; above 100 µM in the assay with 786-0 renal; above 100 µM with MDA-MB-231 breast; above 100 µM in the assay on SK-MEL-28 melanoma. The same molecule returned a TGI in the assay on OVCAR-5 ovarian above 100 µM.

For the molecule `O=c1[nH]c2cc([N+](=O)[O-])c(N/N=C/c3ccc(Cl)cc3Cl)c([N+](=O)[O-])c2[nH]1`, the TGI is above 100 µM in the assay on BT-549 breast; above 100 µM in the assay on T-47D breast; above 100 µM with UACC-62 melanoma; above 100 µM in the assay on 786-0 renal; 60.5 µM in the assay with MDA-MB-231 breast; above 100 µM in the assay on SK-MEL-28 melanoma. The TGI in the assay with OVCAR-5 ovarian and in the assay on MDA-N was above 100 µM throughout.

With `O=C(O)CCCN=C(C1=C(O)C(=O)N(c2ccccc2)C1=O)c1ccccc1`, the TGI with BT-549 breast, with T-47D breast, in the assay on UACC-62 melanoma, in the assay with 786-0 renal, in the assay on MDA-MB-231 breast and in the assay with SK-MEL-28 melanoma was above 100 µM in each case. Also, the TGI in the assay with OVCAR-5 ovarian and in the assay with MDA-N was above 100 µM in each case.

As for `O=c1c(-c2ccccc2)c(SCCN2CCOCC2)n(-c2ccccc2)c(=S)n1-c1ccccc1`, the TGI in the assay with BT-549 breast, in the assay with UACC-62 melanoma, in the assay on MDA-MB-231 breast, in the assay on SK-MEL-28 melanoma and in the assay with OVCAR-5 ovarian was above 100 µM each time.
